Experimental data from paper PMC3961306, “Comparison of the Cancer Gene Targeting and Biochemical Selectivities of All Targeted Kinase Inhibitors Approved for Clinical Use” (PLoS ONE, 2014).

Tests used:
Test in all cases: Kinase profiling in a biochemical assay panel (mobility shift assays and ELISA), %-inhibition at 1 μM; selectivity entropy
[1] = biological target: T1, panel of more than 300 wild-type and mutant kinases (313 kinase panel) (Homo sapiens, UniProt Q96PF2); details: kinase TSSK2; 1 μM
T1 sequence (Q96PF2 1-358): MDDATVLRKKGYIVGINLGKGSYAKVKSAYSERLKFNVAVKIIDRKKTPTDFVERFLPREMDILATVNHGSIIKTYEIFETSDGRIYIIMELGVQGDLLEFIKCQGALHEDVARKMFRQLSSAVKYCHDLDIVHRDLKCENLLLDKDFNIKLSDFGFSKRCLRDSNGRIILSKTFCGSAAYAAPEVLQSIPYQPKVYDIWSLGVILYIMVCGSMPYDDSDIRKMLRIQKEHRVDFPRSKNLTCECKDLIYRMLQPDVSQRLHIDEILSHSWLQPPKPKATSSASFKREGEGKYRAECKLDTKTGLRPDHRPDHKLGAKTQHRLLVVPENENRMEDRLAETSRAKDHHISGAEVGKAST

[2] = biological target: T2, panel of more than 300 wild-type and mutant kinases (313 kinase panel) (Homo sapiens, UniProt Q02156); details: kinase PKCε; 1 μM
T2 sequence (Q02156 1-737): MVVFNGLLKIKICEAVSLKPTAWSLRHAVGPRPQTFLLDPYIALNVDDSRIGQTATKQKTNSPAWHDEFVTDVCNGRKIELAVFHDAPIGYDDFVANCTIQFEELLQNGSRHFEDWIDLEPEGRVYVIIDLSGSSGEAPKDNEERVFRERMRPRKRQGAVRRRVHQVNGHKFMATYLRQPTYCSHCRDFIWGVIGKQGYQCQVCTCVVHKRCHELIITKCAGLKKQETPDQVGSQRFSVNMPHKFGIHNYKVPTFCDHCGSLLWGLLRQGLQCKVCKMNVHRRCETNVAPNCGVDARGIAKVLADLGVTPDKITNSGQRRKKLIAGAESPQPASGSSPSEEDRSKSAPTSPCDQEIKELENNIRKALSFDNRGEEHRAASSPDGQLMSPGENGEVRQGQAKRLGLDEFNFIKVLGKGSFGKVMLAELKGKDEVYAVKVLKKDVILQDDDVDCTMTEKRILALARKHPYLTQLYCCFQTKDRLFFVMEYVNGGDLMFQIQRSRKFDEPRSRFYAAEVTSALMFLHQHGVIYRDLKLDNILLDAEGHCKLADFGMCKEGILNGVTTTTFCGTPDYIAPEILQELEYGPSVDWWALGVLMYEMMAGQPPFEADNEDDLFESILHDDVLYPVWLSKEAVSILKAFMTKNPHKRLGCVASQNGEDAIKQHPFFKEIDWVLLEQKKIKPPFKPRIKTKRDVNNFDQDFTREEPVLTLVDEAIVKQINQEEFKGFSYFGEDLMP

[3] = biological target: T3, panel of more than 300 wild-type and mutant kinases (313 kinase panel) (Homo sapiens, UniProt O14757); details: kinase CHK1; 1 μM compound
T3 sequence (O14757 1-476): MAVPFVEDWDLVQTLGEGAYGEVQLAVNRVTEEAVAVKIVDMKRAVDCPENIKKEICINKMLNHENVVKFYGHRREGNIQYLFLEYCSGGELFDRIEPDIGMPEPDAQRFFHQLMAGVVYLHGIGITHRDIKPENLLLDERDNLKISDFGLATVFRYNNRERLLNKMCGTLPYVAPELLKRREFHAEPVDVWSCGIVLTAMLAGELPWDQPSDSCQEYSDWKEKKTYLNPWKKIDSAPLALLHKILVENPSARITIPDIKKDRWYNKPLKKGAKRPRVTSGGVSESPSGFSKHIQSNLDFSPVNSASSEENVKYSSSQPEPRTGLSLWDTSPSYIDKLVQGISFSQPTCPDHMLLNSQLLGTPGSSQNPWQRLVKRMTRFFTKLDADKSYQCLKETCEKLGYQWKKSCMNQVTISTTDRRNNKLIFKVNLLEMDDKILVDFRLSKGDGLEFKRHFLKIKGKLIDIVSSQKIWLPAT

[4] = biological target: panel of more than 300 wild-type and mutant kinases (313 kinase panel) (Homo sapiens, UniProt P07949, M918T)
[5] = biological target: T4, panel of more than 300 wild-type and mutant kinases (313 kinase panel) (Homo sapiens, UniProt Q9NRA0); details: kinase SPHK2; 1 μM
T4 sequence (Q9NRA0 1-654): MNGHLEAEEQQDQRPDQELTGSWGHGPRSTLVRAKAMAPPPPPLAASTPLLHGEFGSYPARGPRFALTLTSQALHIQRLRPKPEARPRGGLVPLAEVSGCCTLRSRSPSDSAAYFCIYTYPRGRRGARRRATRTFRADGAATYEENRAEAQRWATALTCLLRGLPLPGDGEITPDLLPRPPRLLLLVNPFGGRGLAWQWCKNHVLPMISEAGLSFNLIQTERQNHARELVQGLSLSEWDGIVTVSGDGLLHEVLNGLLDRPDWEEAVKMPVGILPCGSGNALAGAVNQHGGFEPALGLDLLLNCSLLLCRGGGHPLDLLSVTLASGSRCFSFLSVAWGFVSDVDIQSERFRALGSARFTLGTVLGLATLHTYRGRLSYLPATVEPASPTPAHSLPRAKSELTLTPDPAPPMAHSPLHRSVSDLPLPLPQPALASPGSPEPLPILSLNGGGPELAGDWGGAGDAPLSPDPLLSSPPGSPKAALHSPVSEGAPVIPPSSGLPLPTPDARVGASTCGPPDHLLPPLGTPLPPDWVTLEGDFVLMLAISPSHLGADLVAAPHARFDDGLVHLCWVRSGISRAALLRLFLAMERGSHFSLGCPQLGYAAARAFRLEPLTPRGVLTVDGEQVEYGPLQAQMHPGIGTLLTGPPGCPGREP

[6] = biological target: panel of more than 300 wild-type and mutant kinases (313 kinase panel) (Homo sapiens, UniProt P07949, Y791F)
Chain of panel of more than 300 wild-type and mutant kinases (313 kinase panel) (Homo sapiens, UniProt P07949, Y791F) (P07949 29-1114 Y791F): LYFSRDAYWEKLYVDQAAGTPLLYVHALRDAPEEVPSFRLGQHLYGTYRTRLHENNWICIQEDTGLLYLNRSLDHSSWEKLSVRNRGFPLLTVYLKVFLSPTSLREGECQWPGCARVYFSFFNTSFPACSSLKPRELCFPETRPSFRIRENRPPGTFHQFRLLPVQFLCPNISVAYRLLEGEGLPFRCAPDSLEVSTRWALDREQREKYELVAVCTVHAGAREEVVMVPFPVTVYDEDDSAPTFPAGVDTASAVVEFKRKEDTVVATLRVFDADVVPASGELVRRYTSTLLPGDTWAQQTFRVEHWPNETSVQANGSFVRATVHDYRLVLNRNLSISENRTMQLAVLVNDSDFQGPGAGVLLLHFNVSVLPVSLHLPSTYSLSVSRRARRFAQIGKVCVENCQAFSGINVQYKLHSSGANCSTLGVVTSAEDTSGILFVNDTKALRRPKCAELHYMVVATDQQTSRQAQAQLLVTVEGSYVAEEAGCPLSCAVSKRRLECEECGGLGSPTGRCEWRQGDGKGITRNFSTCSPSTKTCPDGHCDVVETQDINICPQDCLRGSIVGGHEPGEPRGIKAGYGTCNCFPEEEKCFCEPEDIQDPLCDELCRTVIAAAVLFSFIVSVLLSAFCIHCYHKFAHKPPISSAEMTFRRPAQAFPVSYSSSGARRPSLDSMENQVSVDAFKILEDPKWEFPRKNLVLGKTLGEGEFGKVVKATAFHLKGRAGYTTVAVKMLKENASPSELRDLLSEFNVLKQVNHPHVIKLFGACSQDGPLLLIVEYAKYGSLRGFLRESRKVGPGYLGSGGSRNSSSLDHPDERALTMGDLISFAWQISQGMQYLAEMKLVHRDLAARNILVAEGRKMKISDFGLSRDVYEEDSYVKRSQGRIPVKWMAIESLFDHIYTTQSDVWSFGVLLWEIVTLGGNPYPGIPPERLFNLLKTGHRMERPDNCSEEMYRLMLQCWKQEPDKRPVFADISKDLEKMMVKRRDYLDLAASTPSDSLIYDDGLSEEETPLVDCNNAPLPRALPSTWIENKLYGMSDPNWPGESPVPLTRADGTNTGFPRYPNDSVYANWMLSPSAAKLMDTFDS

Chain of panel of more than 300 wild-type and mutant kinases (313 kinase panel) (Homo sapiens, UniProt P07949, M918T) (P07949 29-1114 M918T): as the sequence (P07949 29-1114 Y791F) above, with F763Y, M890T counted along it

SMILES	%-inhibition of TSSK2 [1] [%]	%-inhibition of PKCε [2] [%]	%-inhibition, CHK1 [3] [%]	%-inhibition of RET(M918T) ([4]; kinase RET(M918T), 1 μM) [%]	%-inhibition of SPHK2 [5] [%]	%-inhibition of RET(Y791F) ([6]; kinase RET(Y791F), 1 μM) [%]	%-inhibition of RET(M918T) ([4]; 1 µM) [%]	%-inhibition of RET(Y791F) ([6]; 1 µM) [%]
CO[C@H]1C[C@@H]2CC[C@@H](C)[C@@](O)(O2)C(=O)C(=O)N2CCCC[C@H]2C(=O)O[C@H]([C@H](C)C[C@@H]2CC[C@@H](OC(=O)C(C)(CO)CO)[C@H](OC)C2)CC(=O)[C@H](C)/C=C(\C)[C@@H](O)[C@@H](OC)C(=O)[C@H](C)C[C@H](C)/C=C/C=C/C=C/1C [temsirolimus]	-0.179	4.32	4.42	-3.41	2.77	-0.679	–	–
Cc1cn(-c2cc(NC(=O)c3ccc(C)c(Nc4nccc(-c5cccnc5)n4)c3)cc(C(F)(F)F)c2)cn1 [nilotinib]	2.58	-0.567	-15	–	6	–	0.118	16
COc1cc(Nc2c(C#N)cnc3cc(OCCCN4CCN(C)CC4)c(OC)cc23)c(Cl)cc1Cl [bosutinib]	-9	-0.711	83	93	4.4	93	–	–
